{"source": "patent US20170252433A1", "about": "“PSMA-RELATED THERAPIES” (Memorial Sloan Kettering Cancer Center, priority 2014, published 2017)", "key": {"[1]": {"tested_on": "LNCaP-wt cells", "assay": "Androgen receptor pathway output: secreted PSA (DELFIA PSA assay)", "type": "cell-based, human", "settings": "5 μM, 48 h", "description": "Gene expression array was performed after TRIzol-based RNA extraction on an U133A 2.0 gene array (Affymetrix, Santa Clara, Calif.). The output of the androgen receptor (AR) pathway was assessed by measuring the levels of prostate specific antigen (PSA). LNCaP cells that have a functional AR pathway were obtained from ATCC (Manassas, Va.) and grown to confluence. Then they were treated for 48 h with 2-PMPA (5 μM) for 48 h, followed by screening of the culture medium for secreted PSA with the DELFIA PSA assay (Perkin Elmer, Waltham, Mass.). The levels of nitric oxide attributed to nitric oxide synthase's activity and the concentration of total secreted prostaglandins were quantified with the corresponding kits purchased from Cayman Chemicals (Ann Arbor, Mich.). Alterations in energy production due to signaling changes were determined through quantification of the intracellular NAD+ and ATP lelels, using the NAD assay from Cayman Chemicals (Ann Arbor, Mich.) and the StayBrite ATP kit from Biovision (Milpitas, Calif.).\nSince PSMA regulates Akt phosphorylation, it was investigated whether inhibition of PSMA and subsequent downregulation of Akt activity affected the status of the androgen receptor (AR) pathway. […]"}, "[2]": {"tested_on": "PSMA-expressing prostate cancer cells (LNCaP-wt, PC3-hPSMA) and PC3-wt", "assay": "Cytoplasmic calcium quantification (Fluo4 assay)", "type": "cell-based, human", "description": "Cells were seeded at a density of 10,000 per well on a 96-well plate and grown overnight. Loading of the calcium-sensing dye Fluo4 (Life Technologies, Calrsbad, Calif.) was performed according to the manufacturer's instructions. Where indicated the cells were treated with thapsigargin (1 μM, Tocris, Minneapolis, Minn.), L-Quisqualic acid (110 μM, Tocris), 3,5-DHPG (0.67 mM, Tocris), L-AP3 (125 μM, Tocris), U73122 (50 μM, Tocris), and 2-PMPA (100 μM, Tocris) immediately before measuring calcium levels, with a SpectraMax M5 plate reader (Molecular Devices, Sunnyvale, Calif.).\nThe effect of PSMA expression on calcium homeostasis in prostate cancer cell lines was evaluated using the fluorimetric Fluo4 assay kit (Invitrogen), according to the supplier's instructions. The plate was excited at 490 nm, and fluorescence emission was monitored at 520 nm with the SpectraMax M5 plate reader (Molecular Devices). […] To examine calcium accumulation in the cytoplasm, the cells were treated with thapsigargin (1 μM, Tocris) immediately prior to taking measurements with the plate reader. […] Furthermore, we investigated whether PSMA facilitates calcium signaling via the mGluR Group I receptors through its enzymatic activity. The cells were treated with either L-Quisqualic acid (110 μM; mGluR I agonist, Tocris), L-AP3 (125 μM; mGluR I antagonist, Tocris) or a PSMA inhibitor (100 μM, Tocris), immediately prior to taking calcium measurements."}, "[3]": {"tested_on": "LNCaP xenografts", "assay": "In vivo chemotherapy, LNCaP xenografts", "parameters": "species or system male athymic, nude mice", "settings": "0.4 mM, 100 μL retro-orbital injection daily from implantation", "description": "Male, athymic, nude mice (Harlan Laboratories, Indianapolis, Ind.) were implanted with LNCaP xenografts (3 million cells in 100 μL Matrigel) on each flank. Immediately post xengraft implantation, the mice were treated daily iv with 2-PMPA (0.4 mM, 100 μL retro-orbital injection). Tumor volume was assessed by measuring the tumor with microcalipers. Combination therapy was performed with male athymic, nude mice with LNCaP xenografts, which were treated daily post tumor detection. Chemotherapy was administered by iv (100 μL retro-orbital injection) with animals receiving either enzalutamide (0.15 mM), 2-PMPA (3 mM) or both compounds (0.15 mM enzalutamide and 3 mM 2-PMPA). Male athymic, nude mice with PC3-PSMA xenografts (3 million cells in 100 μL Matrigel) were treated with either vehicle (DMSO) or a combination of AZD8055 and XL184 (AZD8055 0.4 mM and XL184 8 μM 100 μL retro-orbital injection).\nTumor growth was examined using daily treatment of male athymic, nude mice with LNCaP xenografts on their flanks Each animal's flanks were injected with 3,000,000 cells in 100 μL matrigel, and the animals were immediately treated with 2-PMPA (0.4 mM, 100 μL retro-orbital injection). Tumor volume was assessed by measuring the tumor with microcalipers. […] In a different study, male athymic, nude mice with LNCaP xenografts were treated daily post tumor detection, with either enzalutamide (0.15 mM, 100 μL retro-orbital injection), 2-PMPA (3 mM, 100 μL retro-orbital injection) or both compounds (0.15 mM enzalutamide and 3 mM 2-PMPA, 100 μL retro-orbital injection). […] (FIG. 9c-d)."}, "[4]": {"tested_on": "LNCaP, LNCaP-KD, PC3-PSMA and PC3-wt cells", "assay": "In vitro chemotherapy, cell viability (Alamar blue)", "description": "Cells were seeded in a 96-well format (2,500 cells per well), and grown for 48 h. They were then treated with the following drugs at a final concentration of 200 nM: Doxorubicin, Taxol, AZD6244, BEZ235, Lapatinib, and Velcade (all purchased from Selleck Chemicals, Houston, Tex.). For combination therapy, cells were treated with 2-PMPA (5 μM final concentration). After overnight incubation in the presence of the drugs, cell viability was determined with the Alamar blue method according to the supplier's guidelines (Life Technologies, Carlsbad, Calif.)\nGiven that PSMA affects the phosphorylation status of multiple targets, it was investigated whether inhibition of PSMA can counteract resistance to various chemotherapeutics used in the clinic or under clinical trials. LNCaP and PCS3-PSMA cells were seeded at a density of 2,500 cells per well in a 96-well format, and after 48 hours growth the cells were treated with the drugs (Doxorubicin (Adriamycin; DNA intercalator), Taxol (Paclitaxel; microtubule stabilizer), AZD6244 (Selumetinib; MEK1 & ERK1/2 inhibitor), BEZ235 (Dactolisib; PI3K & mTOR inhibitor), Lapatinib (EGFR and ErbB2 inhibitor), or Velcade (Bortezomib; 20S proteasome inhibitor), 200 nM final concentration in 1×PBS) or with the drugs (200 nM final concentration) and 2-PMPA (5 μM final concentration). After overnight incubation, cell viability was assessed fluorimetrically with the Alamar blue method (Invitrogen), according to the supplier's protocol."}}}
{"compound": "O=C(O)CCC(CP(=O)(O)O)C(=O)O", "note": "(stereo not drawn) [2-PMPA]", "values": [{"measurement": "PSA mRNA levels", "setting": "[1]", "result": "did not affect PSA's mRNA levels"}, {"measurement": "PSA levels in culturing medium", "setting": "[1]; FIG. 5a", "result": "increased PSA levels"}, {"measurement": "cytoplasmic calcium levels", "setting": "[2]; PSMA inhibition compared with Phospholipase C inhibitor U73122 50 μM, FIG. 1d", "result": "reduction in calcium levels"}, {"measurement": "cytoplasmic calcium levels", "setting": "[2]; PSMA-expressing cells, PSMA inhibitor 100 μM, L-AP3 125 μM, FIG. 1c", "result": "lowered calcium levels"}, {"measurement": "tumor size and growth", "setting": "[3]", "result": "smaller tumors that grew slowly"}, {"measurement": "tumor initiation", "setting": "[3]; FIG. 9a", "result": "did not affect tumor initiation"}, {"measurement": "animal survival", "setting": "[3]; FIG. 9b", "result": "extended the animals survival"}, {"measurement": "effect of 2-PMPA on toxicity of chemotherapeutics (cell viability)", "setting": "[4]; PSMA-expressing cells, drugs 200 nM plus 2-PMPA 5 μM, overnight, FIG. 7a-d", "result": "enhanced the toxicity of all chemotherapeutics"}, {"measurement": "cytotoxic effect of the inhibitor alone", "setting": "[4]; for the study's time-course", "result": "no cytotoxic effect"}]}
